Data on 23 molecules can be found in patent publication US20240059658A1 (Emory University, priority 2019, published 2024).

Molecules are shown by their SMILES.

Assay [1] deals with EU-1. Nature of the assay: WST cytotoxicity assay, cancer cell EU-1. In kind it is cell-based, human. Conditions: Homo sapiens, EU-1, EU-1; no other cell line named in the cell; read-out: Cancer cell (EU-1) cytotoxicity IC50. In outline:
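Pediatric ALL and NB lines grown in RPMI 1640 with 10% FBS at 37 °C, 5% CO2. Cells were exposed to a range of compound concentrations for 20 h, then WST (25 μg/well) was added for a further 4 h. OD read at 450 nm against a 620 nm reference.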

Assay [2] deals with T1, MDM2 (Homo sapiens, UniProt Q00987).
T1 construct: ubiquitination of endogenous MDM2 in EU-1 cells; endogenous in cells; host or cells: EU-1 (ALL) cells
Nature of the assay: MDM2 reduction / expression (Western blot). Format: cell-based. The note with it: words or +/− grades, key not given. The procedure:
(§1) Cells were lysed in a buffer composed of 50 mM Tris, pH 7.6, 150 mM NaCl, 1% Nonidet P-40, 10 mM sodium phosphate, 10 mM NaF, 1 mM sodium orthovanadate, 2 mM phenylmethylsulfonyl fluoride (PMSF), […], 10 μg/mL leupeptin and 10 μg/mL pepstatin. After centrifugation, the clarified cell lysate was separated from the pellet of cell debris, and then incubated with 15 μL Protein G/Protein A-agarose and 1 μg of antibodies, overnight at 4° C. For the Western blot, the resulting cell lysates or immunoprecipitates were resolved by SDS-PAGE. They were then transferred to a nitrocellulose filter and probed with the specific antibodies as listed in the supplemental Materials section. Finally, proteins were visualized with a chemiluminescent detection system.
Background: Immunoblotting shows a protein as a band on a membrane.

Assay [3] deals with XIAP. Put plainly: XIAP inhibition / expression (Western blot). Format: cell-based. The note with it: MDM2 reduction. The procedure:
as §1

Assay [4] deals with p53. Put plainly: p53 induction / expression (Western blot). Format: cell-based. Conditions: words or +/− grades, key not given. As to the method:
as §1

Assay [5] has as its system NB-1643. Put plainly: WST cytotoxicity assay, NB-1643. Format: cell-based. Conditions: Homo sapiens; NB-1643 line; read-out: Cancer cell cytotoxicity IC50. The procedure: This study used two ALL cell lines (EU-1 and EU-3) and three NB cell lines (NB-1643, SHEP1 and LA1-55N). All 5 cancer cell lines were established from pediatric ALL or NB patients and were well-characterized for their expression of MDM2 and p53-status, as reported previously. All cell lines were grown in standard culture medium (RPMI 1640 containing 10% FBS, 2 mmol/L L-glutamine, 50 U penicillin and 50 μg/mL streptomycin) at 37° C. in a humidified atmosphere containing 5% CO2.
(§2) The cytotoxic effect of MX 69 and MX69 analogs on cancer cells was determined using the water-soluble tetrazolium salt (WST) assay. Briefly, cells cultured in 96-well microtiter plates were treated with different concentrations of AQ-101 for a 20-h period. WST (25 μg/well) was then added and incubation continued for an additional 4 h, after which optical density (OD) was read with a microplate reader (test wavelength of 450 nm; reference wavelength of 620 nm).

For assay [6], the system named is 855 line. Put plainly: WST cytotoxicity assay, 855 line. In kind it is cell-based. The note with it: read-out: Cancer cell cytotoxicity IC50. As to the method:
as §2

T1 sequence (Q00987 whole entry): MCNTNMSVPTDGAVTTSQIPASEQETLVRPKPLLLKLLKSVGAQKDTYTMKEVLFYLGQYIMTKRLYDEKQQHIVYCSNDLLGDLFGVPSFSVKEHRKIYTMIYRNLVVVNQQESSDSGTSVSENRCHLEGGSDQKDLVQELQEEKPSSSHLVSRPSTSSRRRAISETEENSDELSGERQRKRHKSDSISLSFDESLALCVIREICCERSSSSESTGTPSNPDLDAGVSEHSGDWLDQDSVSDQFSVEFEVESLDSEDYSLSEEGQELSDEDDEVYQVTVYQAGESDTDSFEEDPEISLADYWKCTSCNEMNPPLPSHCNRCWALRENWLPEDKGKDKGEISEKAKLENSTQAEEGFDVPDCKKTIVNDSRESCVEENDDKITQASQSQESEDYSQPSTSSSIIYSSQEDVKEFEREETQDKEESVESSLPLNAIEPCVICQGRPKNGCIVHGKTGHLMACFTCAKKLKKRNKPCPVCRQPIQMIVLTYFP

In general, IC50 refers to the concentration at which inhibition is half-maximal. As to `Cc1ccc(NS(=O)(=O)c2ccc3c(c2)[C@H]2NCC[C@H]2[C@@H](c2ccc(C(=O)C(C)C)cc2)N3)cc1C` [Compound 69L81], the half-inhibitory concentration (IC50) in assay [1] was determined as 3.2 µM. In addition, the MDM2 reduction entry in assay [2] was “inhibition”. In assay [3], the XIAP inhibition result is on record as “inhibition”. Also, the p53 induction result in assay [4] is “inhibition”.

Regarding `Cc1ccc(NS(=O)(=O)c2ccc3c(c2)C(=O)C[C@@H](c2ccc(C(=O)C(C)C)cc2)N3)cc1C` (stereo in doubt) [Compound 69L84, N-(3,4-dimethylphenyl)-2-(4-isobutyrylphenyl)-4-oxo-1,2,3,4-tetrahydroquinoline-6-sulfonamide], in assay [1], the IC50 was 0.2 to 0.6 µM. For the same molecule, in assay [2], the MDM2 reduction result is given as “inhibition”. In assay [3], the XIAP inhibition result is recorded as “inhibition”. In assay [4], the p53 induction result is reported as “activation”.

For the molecule `Cc1ccc(NS(=O)(=O)c2ccc3c(c2)C2OCC[C@H]2C(c2ccc(C(O)C(C)C)cc2)N3)cc1C` (stereo in doubt) [Compound 69L87, N-(3,4-dimethylphenyl)-4(4-(1-hydroxy-2-methylpropyl)phenyl)-2,3,3a,4,5,9b-hexahydrofuro[3,2-c]quinoline-8-sulfonamide], in assay [1], the 50% inhibitory concentration (IC50) is 1.98 µM. Moreover, the MDM2 reduction entry in assay [2] is reported as “inhibition”. For the same molecule, the p53 induction entry in assay [4] is recorded as “inhibition”.

`O=S(=O)(Nc1ccc2c(c1)CCCC2)c1ccc2c(c1)C1OCC[C@H]1[C@H](C1CCCCC1)N2` (some centres unmarked) [Compound 69L59, 4-cyclohexyl-N-(5,6,7,8-tetrahydronaphthalen-2-yl)-2,3,3a,4,5,9b-hexahydrofuran[3,2-c]quinolone-8-sulfonamine]: the IC50 worked out at 3.09 µM in assay [5] and 2.31 µM in assay [6]. In addition, the MDM2 reduction entry in assay [2] was “No MDM2”.

On to `CC(=O)c1ccc(C2Nc3ccc(S(=O)(=O)Nc4ccc(C)c(C)c4)cc3[C@H]3OCC[C@@H]23)cc1` (some centres unmarked) [Compound 69L38], for which the figures for the IC50 in assay [5] and in assay [6] were 1.82 µM and 0.49 µM, respectively. Further, in assay [2], the MDM2 reduction entry is “No MDM2”.

Take `CC(=O)c1cccc(NS(=O)(=O)c2ccc3c(c2)[C@H]2OCC[C@H]2C(c2ccc(C(=O)C(C)C)cc2)N3)c1` (stereo in doubt) [Compound 69L102, N-(3-acetylphenyl)-4-(4-isobutyrylphenyl)-2,3,3a,4,5,9b-hexahydrofuro[3,2-c]quinoline-8-sulfonamide]: the half-maximal inhibitory concentration (IC50) in assay [1] worked out at 0.23 µM. Also, the MDM2 reduction entry in assay [2] is listed as “inhibition”. Moreover, the XIAP inhibition entry in assay [3] is given as “inhibition”.

As for `COC(=O)c1ccc([C@H]2CC(O)c3cc(S(=O)(=O)Nc4ccc(C)c(C)c4)ccc3N2)cc1` (some centres unmarked) [Compound 69L39], the half-maximal inhibitory concentration (IC50) was found to be 1.61 µM in assay [5] and 0.68 µM in assay [6]. In addition, the MDM2 reduction entry in assay [2] was “No MDM2”.

Take `CCCC(=O)c1ccc(C2Nc3ccc(S(=O)(=O)Nc4ccc(C)c(C)c4)cc3[C@H]3OCC[C@@H]23)cc1` (some centres unmarked) [Compound 69L72]: the IC50 in assay [1] worked out at 2.94 µM. The MDM2 reduction result in assay [2] is “No MDM2”.

For the molecule `CC(=O)c1cccc(NS(=O)(=O)c2ccc3c(c2)C(=O)CC(c2ccc(C(=O)C(C)C)cc2)N3)c1` (centres unmarked) [Compound 69L113, N-(3-acetylphenyl)-2-(4-isobutyrylphenyl)-4-oxo-1,2,3,4-tetrahydro-quinoline-6-sulfonamide], the IC50 in assay [1] was less than 0.1 µM. Also, in assay [2], the MDM2 reduction result is “inhibition”. In assay [3], the XIAP inhibition entry is on record as “inhibition”.

Regarding `Cc1ccc(NS(=O)(=O)c2ccc3c(c2)C2OCC[C@H]2[C@H](C2CCOCC2)N3)cc1C` (some centres unmarked) [Compound 69L58, N-(3,4-dimethylphenyl)-4-(tetrahydro-2H-pyran-4-yl)-2,3,3a,4,5,9b-hexahydrofuran[3,2-c]quinolone-8-sulfonamine], the values for the concentration for half-maximal inhibition (IC50) in assay [5] and in assay [6] were 2.63 µM and 1.61 µM, respectively. Further, the MDM2 reduction entry in assay [2] is listed as “inhibition”. Besides, the p53 induction entry in assay [4] is “induction”.

As to `CC(=O)c1ccc(NS(=O)(=O)c2ccc3c(c2)[C@H]2OCC[C@H]2C(c2ccc(C(=O)C(C)C)cc2)N3)cc1` (some centres unmarked) [Compound 69L98, N-(4-acetylphenyl)-4-(4-isobutyrylphenyl)-2,3,3a,4,5,9b-hexahydrofuro[3,2-c]quinoline-8-sulfonamide], the IC50 in assay [1] amounted to 1.5 µM. For the same molecule, the MDM2 reduction result in assay [2] is given as “inhibition”. For the same molecule, the p53 induction result in assay [4] is reported as “induction”.

With `CC(C)C(=O)c1ccc(C2Nc3ccc(S(=O)(=O)Nc4ccccc4)cc3[C@H]3OCC[C@@H]23)cc1` (some centres unmarked) [Compound 69L75], the concentration for half-maximal inhibition (IC50) in assay [1] amounted to 3.21 µM. Further, the MDM2 reduction entry in assay [2] is “No MDM2”.

For `O=S(=O)(Nc1ccccc1)c1ccc2c(c1)[C@H]1OCC[C@H]1[C@H](C1CCCCC1)N2` [Compound 69L66], in assay [1], the IC50 was 2.56 µM. The MDM2 reduction entry in assay [2] is “No MDM2”.

As for `CC(=O)c1cccc(NS(=O)(=O)c2ccc3c(c2)[C@H]2OCC[C@H]2C(c2cccc(C(C)=O)c2)N3)c1` (stereo in doubt) [Compound 69L103, N,4-bis(3-acetylphenyl)-2,3,3a,4,5,9b-hexahydrofuro[3,2-c]quinoline-8-sulfonamide], the IC50 in assay [1] came to 0.97 µM. For the same molecule, the MDM2 reduction entry in assay [2] is listed as “No MDM2”.

As for `CC(=O)c1ccc(C2CC(=O)c3cc(S(=O)(=O)Nc4ccc(C)c(C)c4)ccc3N2)cc1` (centres unmarked) [Compound 69L83, 2-(4-acetylphenyl)-N-(3,4-dimethylphenyl)-4-oxo-1,2,3,4-tetrahydroquinoline-6-sulfonamide], the 50% inhibitory concentration (IC50) in assay [1] was 1.17 µM. Besides, the MDM2 reduction result in assay [2] was “inhibition”. Also, the p53 induction result in assay [4] is on record as “inhibition”.

`CC(C)C(=O)c1ccc(C2Nc3ccc(S(=O)(=O)N[C@H]4CC[C@H](C)CC4)cc3[C@H]3OCC[C@@H]23)cc1` (some centres unmarked) [Compound 69L78]: in assay [1], the IC50 turned out to be 3.67 µM. Also, the MDM2 reduction entry in assay [2] is recorded as “No MDM2”.

On to `Cc1cc(NS(=O)(=O)c2ccc3c(c2)C(=O)CC(c2ccc(C(=O)C(C)C)cc2)N3)ccc1F` (centres unmarked) [Compound 69L108, N-(4-fluoro-3-methylphenyl)-2-(4-isobutyrylphenyl)-4-oxo-1,2,3,4-tetrahydroquinoline-6-sulfonamide], for which the concentration for half-maximal inhibition (IC50) in assay [1] turned out to be 0.42 µM. In addition, in assay [2], the MDM2 reduction entry is “inhibition”.

For the molecule `Cc1ccc(NS(=O)(=O)c2ccc3c(c2)[C@H]2OCC[C@H]2[C@H](C2CCC(C(C)C)CC2)N3)cc1C` (some centres unmarked) [Compound 69L56, N-(3,4-dimethylphenyl)-4-(4-isopropylcyclohexyl)-2,3,3a,4,5,9b-hexahydrofuran[3,2-c]quinolone-8-sulfonamine], in assay [1], the IC50 was determined as 10.2 µM. Moreover, the MDM2 reduction entry in assay [2] is recorded as “inhibition”.

For the molecule `Cc1ccc(NS(=O)(=O)c2ccc3c(c2)C2OCC[C@H]2C(c2cccc(C(=O)C(C)C)c2)N3)cc1C` (some centres unmarked) [Compound 69L94], the half-inhibitory concentration (IC50) in assay [1] came out at 3.56 µM. Moreover, in assay [2], the MDM2 reduction entry is listed as “No MDM2”.

As to `CC(=O)c1cccc(NS(=O)(=O)c2ccc3c(c2)C(=O)CC(c2cccc(C(C)=O)c2)N3)c1` (centres unmarked) [Compound 69L121, N,2-bis(3-acetylphenyl)-4-oxo-1,2,3,4-tetrahydroquinoline-6-sulfonamide], the 50% inhibitory concentration (IC50) in assay [1] came out at 0.18 µM. Further, the MDM2 reduction entry in assay [2] was “inhibition”.

As to `Cc1ccc(NS(=O)(=O)c2ccc3c(c2)C(=O)CC(c2cccc(C(=O)C(C)C)c2)N3)cc1C` (centres unmarked) [Compound 69L114, N-(3,4-dimethylphenyl)-2-(3-isobutyrylphenyl)-4-oxo-1,2,3,4-tetrahydroquinoline-6-sulfonamide], the IC50 in assay [1] was less than 0.1 µM. Also, in assay [2], the MDM2 reduction result is listed as “inhibition”. In addition, the XIAP inhibition entry in assay [3] is given as “inhibition”.

In the case of `CC(=O)c1cccc(C2Nc3ccc(S(=O)(=O)Nc4ccc(C)c(C)c4)cc3C3OCC[C@@H]23)c1` (stereo in doubt) [Compound 69L93, 4-(3-acetylphenyl)-N-(3,4-dimethylphenyl)-2,3,3a,4,5,9b-hexahydrofuro[3,2-c]quinoline-8-sulfonamide], the IC50 in assay [1] was found to be 1.95 µM. In addition, the MDM2 reduction entry in assay [2] was “inhibition”. Besides, the p53 induction result in assay [4] is listed as “induction”.

For the molecule `CC(=O)c1cccc(C2CC(=O)c3cc(S(=O)(=O)Nc4ccc5c(c4)CCO5)ccc3N2)c1` (centres unmarked) [Compound 69L123, 2-(3-acetylphenyl)-N-(2,3-dihydrobenzofuran-5-yl)-4-oxo-1,2,3,4-tetrahydroquinoline-6-sulfonamide], in assay [1], the IC50 is less than 0.1 µM. The MDM2 reduction entry in assay [2] is recorded as “inhibition”.
